{"source": "patent US20230149418A1", "about": "“METHODS AND SYNERGIC COMPOSITIONS FOR TREATING VIRAL INFECTIONS” (HADASIT MEDICAL RESEARCH SERVICES AND DEVELOPMENT LTD., priority 2018, published 2023)", "key": {"human endothelial cells": {"tested_on": "human endothelial cells", "conditions": "compared with dihydroartemisinin; cited from earlier work"}, "[1]": {"conditions": "male rats, 50 mg/kg for 14 days; cited from earlier work"}, "[2]": {"conditions": "preclinical in vitro and in vivo screens; cited from earlier work"}, "HCMV": {"tested_on": "HCMV", "test": "Ex vivo HCMV infection of human decidual (placental) tissue organ cultures, viral mRNA copy number", "assay_type": "cell-based, human cytomegalovirus", "conditions": "for EC50: Human betaherpesvirus 5; for Dose of drug alone at Fa 0.9: Fa 0.9, drug alone; for DRI (dose reduction index): combination artemisone + maribavir", "description": "Organ cultures were washed and stored at -80° C. until assayed. RNA was extracted, and the purified RNA samples were subjected to reverse transcription (RT), followed by quantitative real-time PCR. The viral mRNA copy number was normalized by the cellular housekeeping gene β-actin.\nWe employed our model of HCMV infection in human decidual tissues (representing the maternal aspect of the chimeric human placenta), maintained as multi-cell-type 3D organ cultures as described in Weisblum Y. et al. J Virol 2011 85(24): 13204-13. doi: 10.1128/JVI.05749-11. For infection of the organ cultures, decidual tissues were placed in 48-well plates and inoculated with the virus (5x10^4 plaque forming units (PFU)/well) for 12 h to allow effective viral adsorption. The tissues were further monitored for viral infection and spread for 7 days. For determination of the drug EC50 values of in the tissues, serial drug concentrations: each drug separately or combination of the drugs were added to the infected decidual tissues during viral adsorption at any further medium replacement to keep the drug concentration constant. The results were compared to samples to which the drug was not added. The EC50 was defined as the drug concentration required to reduce the viral mRNA copy number by 50%. The effect of drug combinations was tested in accordance with the Chou-Talalay method. All comparative experiments were performed in parallel on tissues from the same donor.\nThe dose reduction index (DRI) was then calculated as described in Chou. As described earlier, the DRI is a measure of how many folds the dose of each drug in a synergistic combination may be reduced at a given effect level compared with the doses of each drug alone. For each one of the below tables: Fa - fraction of virus affected; doses are provided in µm."}}, "note": "Like-named read-outs stand apart in the source and are kept apart here."}
{"compound": "CC1CCC2[C@@H](C)[C@H](N3CCS(=O)(=O)CC3)OC3O[C@]4(C)CCC1C32OO4", "note": "(stereo in doubt) [artemisone]", "values": [{"measurement": "Anti-angiogenic activity", "setting": "human endothelial cells", "result": "significantly less anti-angiogenic than dihydroartemisinin"}, {"measurement": "Tolerability", "setting": "[1]", "result": "no effect as compared to controls"}, {"measurement": "Neurotoxicity", "setting": "[2]", "result": "does not elicit neurotoxicity"}, {"measurement": "EC50", "setting": "HCMV; ex vivo, Fa 0.5, drug alone, read-out: Dose of drug alone at Fa 0.5", "result": 0.425, "unit": "µM"}, {"measurement": "EC50", "setting": "HCMV; sole drug, ex vivo decidual tissues, read-out: EC50 (concentration required to reduce the viral mRNA copy number by 50%)", "result": 0.5, "unit": "µM"}, {"measurement": "Dose of drug alone at Fa 0.05", "setting": "HCMV; ex vivo, Fa 0.05, drug alone", "result": 0.00699, "unit": "µm"}, {"measurement": "Dose of drug alone at Fa 0.75", "setting": "HCMV; ex vivo, Fa 0.75, drug alone", "result": 1.965, "unit": "µm"}, {"measurement": "Dose of drug alone at Fa 0.9", "setting": "HCMV; ex vivo", "result": 9.1, "unit": "µm"}, {"measurement": "Dose of drug alone at Fa 0.9", "setting": "HCMV; ex vivo, listed as Art", "result": 9.098, "unit": "µm"}, {"measurement": "Dose of drug alone at Fa 0.95", "setting": "HCMV; ex vivo, Fa 0.95, drug alone", "result": 25.7963, "unit": "µm"}, {"measurement": "Dose of drug alone at Fa 0.97", "setting": "HCMV; ex vivo, Fa 0.97, drug alone", "result": 54.1517, "unit": "µm"}, {"measurement": "DRI (dose reduction index)", "setting": "HCMV; ex vivo, Fa 0.05", "result": 0.1239}, {"measurement": "DRI (dose reduction index)", "setting": "HCMV; ex vivo, Fa 0.5", "result": 1.12}, {"measurement": "DRI (dose reduction index)", "setting": "HCMV; ex vivo, Fa 0.75", "result": 2.546}, {"measurement": "DRI (dose reduction index)", "setting": "HCMV; ex vivo, Fa 0.9", "result": 5.8}, {"measurement": "DRI (dose reduction index)", "setting": "HCMV; ex vivo, Fa 0.9, listed as Art", "result": 5.789}, {"measurement": "DRI (dose reduction index)", "setting": "HCMV; ex vivo, Fa 0.95, listed as Art", "result": 10.1210}, {"measurement": "DRI (dose reduction index)", "setting": "HCMV; ex vivo, Fa 0.97", "result": 15.0614}]}
